Assay results: ChEMBL document CHEMBL4052831, “The Discovery of N-(1-Methyl-5-(trifluoromethyl)-1H-pyrazol-3-yl)-5-((6- ((methylamino)methyl)pyrimidin-4-yl)oxy)-1H-indole-1-carboxamide (Acrizanib), a VEGFR-2 Inhibitor Specifically Designed for Topical Ocular Delivery, as a Therapy for Neovascular Age-Related Macular Degeneration” (J Med Chem, 2018)
The source made the active and inactive calls. The calls are words filed in the database; no cut-off is given here.

Tests used:
[1] = biological target: Vascular endothelial growth factor receptor 2 (Homo sapiens, UniProt P35968)
Description: Inhibition of KDR (unknown origin) expressed in mouse Ba/F3 cells

Mus musculus = experiment: Antiangiogenic activity in C57BL/6 mouse laser-induced choroidal neovascularization model assessed as inhibition of neovascularization administered 1% suspension using 3.5 uL topical drop to both eyes every 3 hrs for 9 hrs by microscopic analysis
[2] = Intrinsic clearance in rat liver microsomes at 1 uM after 5 to 30 mins by LC-MS/MS analysis; type: ADME, microsome; conditions: read-out: CLH
Rattus norvegicus = experiment: Antiangiogenic activity in Brown Norway rat laser-induced choroidal neovascularization model assessed as inhibition of neovascularization administered 1% suspension using 4 uL topical drop to both eyes every 3 hrs for 9 hrs by microscopic analysis

Chain of Vascular endothelial growth factor receptor 2 (P35968 whole entry): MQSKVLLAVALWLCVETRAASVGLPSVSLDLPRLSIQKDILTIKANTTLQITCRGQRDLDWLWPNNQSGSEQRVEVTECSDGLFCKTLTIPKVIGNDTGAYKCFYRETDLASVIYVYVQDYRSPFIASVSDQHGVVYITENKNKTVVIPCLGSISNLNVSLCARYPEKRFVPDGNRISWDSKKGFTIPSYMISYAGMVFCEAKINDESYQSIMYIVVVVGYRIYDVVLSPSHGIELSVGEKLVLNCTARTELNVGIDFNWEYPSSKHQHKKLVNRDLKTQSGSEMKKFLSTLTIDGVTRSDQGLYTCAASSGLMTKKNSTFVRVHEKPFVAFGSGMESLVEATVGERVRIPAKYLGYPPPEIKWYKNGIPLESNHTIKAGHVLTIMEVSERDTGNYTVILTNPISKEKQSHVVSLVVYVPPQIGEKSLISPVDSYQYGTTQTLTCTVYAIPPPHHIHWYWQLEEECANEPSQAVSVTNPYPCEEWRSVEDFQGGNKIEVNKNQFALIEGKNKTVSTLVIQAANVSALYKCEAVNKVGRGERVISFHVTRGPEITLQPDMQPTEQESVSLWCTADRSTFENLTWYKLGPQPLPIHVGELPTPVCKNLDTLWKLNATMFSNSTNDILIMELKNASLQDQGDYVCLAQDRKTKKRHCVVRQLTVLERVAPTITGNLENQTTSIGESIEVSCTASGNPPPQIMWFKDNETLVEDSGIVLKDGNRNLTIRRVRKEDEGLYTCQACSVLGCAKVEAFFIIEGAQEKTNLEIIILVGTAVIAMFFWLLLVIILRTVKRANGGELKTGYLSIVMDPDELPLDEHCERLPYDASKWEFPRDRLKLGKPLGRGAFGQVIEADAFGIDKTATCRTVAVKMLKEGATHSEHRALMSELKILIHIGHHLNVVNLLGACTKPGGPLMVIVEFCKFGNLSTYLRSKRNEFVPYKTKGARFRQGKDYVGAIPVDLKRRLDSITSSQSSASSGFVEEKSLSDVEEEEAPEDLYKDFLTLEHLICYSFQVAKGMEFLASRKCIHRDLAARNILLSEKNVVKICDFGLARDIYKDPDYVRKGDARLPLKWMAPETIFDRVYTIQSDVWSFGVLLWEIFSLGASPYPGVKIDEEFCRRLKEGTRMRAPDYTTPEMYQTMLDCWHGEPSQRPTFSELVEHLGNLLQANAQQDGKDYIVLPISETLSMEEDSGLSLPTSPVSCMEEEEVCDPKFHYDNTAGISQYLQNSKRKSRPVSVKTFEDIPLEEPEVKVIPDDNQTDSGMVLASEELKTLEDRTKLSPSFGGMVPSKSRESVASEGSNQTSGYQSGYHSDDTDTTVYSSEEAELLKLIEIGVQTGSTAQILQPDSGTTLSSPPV

O=C(Nc1cccc(C(F)(F)F)c1)c1cccc2cc(Oc3cc(CO)ncn3)ccc12 [BFH-772]
IC50 [1]: 1.3 nM

O=C(Nc1cc(C2CC2)on1)n1ccc2cc(Oc3ncnc4c3CCNC4)ccc21
inhibition (Mus musculus): inactive

CNCc1cc(Oc2ccc3c(ccn3C(=O)Nc3cc(C(C)C)on3)c2)ncn1
microsomal CLint at 1 µM [2]: 114 µL/min/mg

CC(=O)N1Cc2ncnc(Oc3ccc4c(ccn4C(=O)Nc4cc(C5CC5)on4)c3)c2C1
inhibition (Rattus norvegicus): inactive

Nc1nccc(Oc2ccc3c(C(=O)Nc4cccc(C(F)(F)F)c4)cccc3c2)n1
IC50 [1]: 1.7 nM | inhibition (Rattus norvegicus): inactive

O=C(Nc1cc(C2CCOCC2)on1)n1ccc2cc(Oc3ncnc4c3CNC4)ccc21
inhibition (Mus musculus): inactive

CNCc1cc(Oc2ccc3c(ccn3C(=O)Nc3cc(C4(C)CC4)on3)c2)ncn1
microsomal CLint at 1 µM [2]: 91 µL/min/mg
